# Measurements as given in article PMC4706877, “Antibacterial and Cytotoxic Activity of Compounds Isolated from Flourensia oolepis” (Evidence-based Complementary and Alternative Medicine : eCAM, 2015).
# Like-named read-outs stand apart in the source and are kept apart here.
# Key:
# K562 cells [1] = experiment: Viable cell count by trypan blue dye exclusion; format: cell-based, human
# Protocol: (§1) To confirm the effect of compound 1 on the proliferation of CCRF-CEM and K562, cell suspensions (5 × 10^4 cells/well) were treated in culture medium with different concentrations of 1 (final volume of 200 μL) and incubated in triplicate for 24, 48, and 72 h. Two independent experiments were performed. The number of viable cells at the different time points was counted by the trypan blue dye exclusion method using a hemocytometer (Neubaur, USA).
# CCRF-CEM cells = experiment: Viable cell count by trypan blue dye exclusion; format: cell-based, human
# Protocol: as §1
# [2] = tested on: peripheral blood mononuclear cells (PBMC); experiment: MTT cell proliferation assay; format: cell-based; settings: Homo sapiens
# From the text: (§2) CCRF-CEM acute lymphoblastic leukemia (ALL) and K562 chronic myeloid leukemia (CML) cells and their MDR P-glycoprotein overexpressing variants, CEM/ADR5000 and Lucena 1, respectively, were a generous gift from Dr. T. Efferth (Institute of Pharmacy and Biochemistry, Johannes Gutenberg University, Mainz, Germany) and Dr. V. Rumjanek (Instituto de Bioquímica Médica Leopoldo de Meis, Universidade Federal do Rio de Janeiro, Rio de Janeiro, Brazil), respectively. The HEK293T non-tumor derived cell line and human isolated mononuclear cells (PBMC) were also tested. […]
# (§3) To investigate the cytotoxic potential of the isolated compounds, the MTT colorimetric assay was performed. […] The compounds were evaluated at a final maximum concentration of 100 μM. […] Absorbance was measured with an iMark micro-plate reader (Bio-Rad, USA) at 595 nm. […] The percentage of cytotoxic activity of the assayed compounds was determined by the following formula: cytotoxicity (%) = [1 − (optical density of treated cells − optical density DMSO)/(optical density of ethanol control cells − optical density DMSO)] × 100.
# [3] = tested on: Staphylococcus aureus subsp. aureus (ATCC 6538); experiment: Agar dilution MIC / MBC; format: cell-based; settings: S. aureus; for MBC: value in parentheses
# Protocol: (§4) This isolate was identified by conventional biochemical assays and by the commercial system API20E (bioMérieux SA, Mercy L'Etoile, France). Antimicrobial resistances were determined by disk diffusion susceptibility testing (Kirby-Bauer Method) according to CLSI [15]. Bacterial suspensions were prepared on sterile saline from each organism grown overnight. Turbidity was spectrophotometrically adjusted to the McFarland 0.5 standard. Dilutions were carried out with sterile saline to give an adjusted concentration of 1.5 × 10^7 colony-forming units/mL.
# (§5) Three independent experiments were carried out. […] For reading, visual observations were carried out.
# [4] = tested on: Pseudomonas aeruginosa (ATCC 27853); experiment: Agar dilution MIC / MBC; format: cell-based; settings: ATCC27853, P. aeruginosa
# Protocol: as §4, §5
# [5] = tested on: Enterococcus faecalis (ATCC 29212); experiment: Agar dilution MIC / MBC; format: cell-based; settings: ATCC29212, E. faecalis
# Protocol: as §4, §5
# [6] = tested on: Escherichia coli (ATCC 25922); experiment: Agar dilution MIC / MBC; format: cell-based; settings: ATCC25922, E. coli
# Protocol: as §4, §5
# [7] = tested on: tetracycline, erythromycin, and polymyxin-resistant Proteus mirabilis (Pr2921); experiment: Agar dilution MIC / MBC; format: cell-based; settings: P. mirabilis
# Protocol: as §4, §5
# [8] = tested on: sensitive and resistant leukemic cells; experiment: MTT assay, summary over leukemic cell lines; format: cell-based; settings: Homo sapiens, read-out: IC50 values, range
# From the text: as §2, §3
# K562 cells [9] = experiment: Cell cycle distribution by flow cytometry (PI); format: cell-based, human; settings: 2 × IC50, 72 h
# Protocol: […] After treatment, cells were harvested and washed twice with ice cold PBS. Then, cells were fixed with 70% cold ethanol and kept at 4°C for 24 h. Before analysis, the cells were washed twice with PBS and stained with a solution containing propidium iodide (PI, 50 μg/mL, Sigma-Aldrich CO, USA) and RNase A (100 μg/mL, Sigma-Aldrich CO, USA) in PBS (pH 7.4) for 30 min in the dark. DNA content was evaluated by flow cytometry. The relative distribution of at least 20,000 cells was analyzed using FlowJo software version 7.6.2 (Tree Star, Inc. OR, USA).
# [10] = tested on: HEK293T non-tumor derived cell line; experiment: MTT cell proliferation assay; format: cell-based; settings: Homo sapiens, HEK-293T
# From the text: as §2, §3
smiles,measurement,setting,value
"O=C(/C=C/c1ccccc1)c1ccc(O)cc1O [Compound 1, 2′,4′-dihydroxychalcone]",time at which a significant decrease (p < 0.05) in number of viable cells vs ethanol control was observed,K562 cells [1]; 20.8 μM,48 h
same,time at which a significant decrease (p < 0.05) in number of viable cells vs ethanol control was observed,K562 cells [1]; 41.6 μM,24 h
same,time at which a significant difference (p < 0.05) in number of viable cells vs ethanol control was observed,CCRF-CEM cells; 2.6 μM,72 h
same,time at which a significant difference (p < 0.05) in number of viable cells vs ethanol control was observed,CCRF-CEM cells; 5.2 μM,48 h
same,IC50,[2],82.8 µM
same,MBC,[3],31 (31) μg/mL
same,MIC,"[3]; Staphylococcus aureus, ATCC6538, agar dilution, 24 h",31 mg/L
same,MBC,"[3]; Staphylococcus aureus, ATCC6538, read-out: MBC",31 mg/L
same,MIC,"[4]; agar dilution, 24 h",250 mg/L
same,MBC,[4]; value in parentheses,> 500 mg/L
same,MIC,"[5]; agar dilution, 24 h",62 mg/L
same,MBC,[5]; value in parentheses,125 mg/L
same,MIC,"[6]; agar dilution, 24 h",250 mg/L
same,MBC,[6]; value in parentheses,500 mg/L
same,MIC,"[7]; agar dilution, 24 h",62 mg/L
same,MBC,[7]; value in parentheses,125 mg/L
same,IC50,[8],6.6 to 30 µM
same,cells in the G2/M phase,K562 cells [9],19%
same,hypodiploid sub-G1 population,K562 cells [9]; ethanol control 1%,25%
same,IC50,[10],67 µM
